Assays:
[1] = target: T1, Cytochrome P450 17A1 (steroid 17-alpha-hydroxylase/17,20 lyase) (Rattus norvegicus, UniProt P11715); assay: Inhibition Cytochrome P450 17A1 of rat testicular microsomes at 2.5 uM with 25 uM progesterone; settings: probe progesterone (25 uM)
T1 sequence (P11715 whole entry): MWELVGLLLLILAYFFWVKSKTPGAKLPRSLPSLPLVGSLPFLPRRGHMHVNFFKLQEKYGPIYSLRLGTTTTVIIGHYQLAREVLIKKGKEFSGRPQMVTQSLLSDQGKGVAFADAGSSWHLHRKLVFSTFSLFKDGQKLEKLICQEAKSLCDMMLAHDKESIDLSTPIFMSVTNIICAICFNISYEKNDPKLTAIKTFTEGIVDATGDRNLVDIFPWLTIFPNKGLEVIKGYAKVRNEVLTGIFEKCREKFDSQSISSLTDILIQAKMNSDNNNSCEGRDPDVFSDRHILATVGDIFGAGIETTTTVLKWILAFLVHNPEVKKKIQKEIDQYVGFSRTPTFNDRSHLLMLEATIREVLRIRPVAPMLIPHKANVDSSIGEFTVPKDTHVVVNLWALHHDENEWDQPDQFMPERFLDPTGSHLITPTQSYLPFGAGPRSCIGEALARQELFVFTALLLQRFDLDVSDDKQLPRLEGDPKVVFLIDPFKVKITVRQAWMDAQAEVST

[2] = target: T2, Aromatase (Homo sapiens, UniProt P11511)
T2 sequence (P11511 whole entry): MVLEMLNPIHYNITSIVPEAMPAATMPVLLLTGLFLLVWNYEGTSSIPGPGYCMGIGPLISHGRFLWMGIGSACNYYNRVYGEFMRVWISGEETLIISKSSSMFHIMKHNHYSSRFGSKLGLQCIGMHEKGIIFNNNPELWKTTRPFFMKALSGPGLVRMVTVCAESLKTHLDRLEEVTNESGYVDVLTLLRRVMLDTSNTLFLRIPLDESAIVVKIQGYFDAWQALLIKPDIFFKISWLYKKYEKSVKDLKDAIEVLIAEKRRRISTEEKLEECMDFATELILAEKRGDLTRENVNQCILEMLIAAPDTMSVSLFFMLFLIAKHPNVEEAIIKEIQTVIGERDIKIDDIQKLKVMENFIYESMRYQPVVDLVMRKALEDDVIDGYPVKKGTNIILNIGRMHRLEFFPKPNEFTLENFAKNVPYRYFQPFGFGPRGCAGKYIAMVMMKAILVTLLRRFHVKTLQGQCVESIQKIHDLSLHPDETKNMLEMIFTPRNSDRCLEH
Description: Inhibition of cytochrome P450 19A1 of human placental microsomes with [1-beta,2beta-3H]testosterone

[3] = target: T2, Aromatase; assay: In vitro inhibition of cytochrome P450 19A1 from human placental microsomes with 2.5 uM [1-beta,2beta-3H]testosterone
[4] = target: T2, Aromatase; assay: Relative potency as IC50 compared to aminoglutethimide IC50=[…] uM

Compound | inhibition at 2.5 µM [1] | IC50 [2] | IC50 [3] | Relative potency [4]
CCn1ccc2cccc(C(c3cccc(Cl)c3)n3ccnc3)c21 (stereo unspecified) | 43% |  |  | 
CCN1CCc2cccc(C(c3cccc(Cl)c3)n3ccnc3)c21 (stereo unspecified) | 38% |  |  | 
CCN1CCc2cc(Cl)cc(C(c3ccc(F)cc3)n3ccnc3)c21 (stereo unspecified) | 23% |  |  | 
CCn1ccc2cccc(C(c3ccc(Cl)cc3)n3ccnc3)c21 (stereo unspecified) | 29% |  |  | 
CCn1ccc2cc(Br)cc(C(c3ccc(F)cc3)n3ccnc3)c21 (stereo unspecified) | 9% | 200 nM |  | 
CCN1CCc2cccc(C(c3ccc(F)cc3)n3cncn3)c21 (stereo unspecified) |  | 2900 nM |  | 10

The next lines start with the values.

inhibition at 2.5 µM [1] | IC50 [2] | IC50 [3] | Relative potency [4] | Compound
29% | 70 nM |  |  | CCn1ccc2cccc(C(c3ccc(Br)cc3)n3ccnc3)c21 (stereo unspecified)
8% | 90 nM |  |  | CCN1CCc2cc(Br)cc(C(c3ccc(F)cc3)n3ccnc3)c21 (stereo unspecified)
37% |  | 61.5 nM |  | CCN1CCc2cccc(C(c3ccc(F)cc3)n3ccnc3)c21 (stereo unspecified)
37% | 62 nM |  |  | CCn1ccc2cccc(C(c3ccc(F)cc3)n3ccnc3)c21 (stereo unspecified)

— ChEMBL document CHEMBL1136431, “Preparation and pharmacological profile of 7-(alpha-azolylbenzyl)-1H-indoles and indolines as new aromatase inhibitors” (Bioorg Med Chem Lett, 2003)
